The values that follow come from EP0549365A1, “Thiazolidine compounds, their preparation and their therapeutic uses” (Sankyo Company Limited, priority 1991, dated 1993).

The structures appear in SMILES notation.

The assay has as its system diabetic male mice of the KK strain. The assay can be described thus: Hypoglycemic activity (blood glucose lowering in diabetic KK mice). The assay is classed as in vivo. The conditions noted are these: Mus musculus, 50 mg/kg oral, blood from tail vein after 18 hours free feeding, relative to solvent group, read-out: BGL lowering rate (%). The procedure: The test animals used were diabetic male mice of the KK strain, each having a body weight more than 40 g. Each animal was orally administered 50 mg/kg of a test compound and then allowed to feed freely for 18 hours. At the end of this time, blood was collected from the tail veins without anesthesia. The blood glucose level (BGL) was determined by means of a glucose analyzer (GL-101, manufactured by Mitsubishi Kasei Co.).
The blood glucose lowering rate was calculated by the following equation: Blood glucose lowering rate (%) = [(BGLs - BGLt )/BGLs ] x 100 [formula] where: BGLs is the BGL in the group administered a solvent; and BGLt is the BGL in the group administered a test compound.
As to `COc1cc(COc2ccc(CC3SC(=O)NC3=O)cc2)c(OC)c2ccccc12` (centres unmarked) [Example 31], the inhibition in vivo at 50 mg/kg was determined as 32.9%.
For `COc1c(C)c(CCCCOc2ccc(CC3SC(=O)NC3=O)cc2)c(OC)c(OC)c1OC` (centres unmarked) [Example 19], the inhibition in vivo at 50 mg/kg was 26.6%.
For the compound `CC(=O)Oc1c(C)c(C)c(OC(C)=O)c(Oc2ccc(CC3SC(=O)NC3=O)cc2)c1C` (centres unmarked) [Example 7, 5-[4-(2,5-Diacetoxy-3,4,6-trimethylphenoxy)benzyl]thiazolidine-2,4-dione], the inhibition in vivo at 50 mg/kg amounted to 24%.
Turning to `CC1=C(C)C(=O)C(CCC(C)(O)COc2ccc(CC3SC(=O)NC3=O)cc2)=C(C)C1=O` (centres unmarked) [Control 1, 5-{4-[2-Methyl-2-hydroxy-4-(3,5,6-trimethyl-1,4-benzoquinon-2-yl)butoxy]benzyl}thiazolidine-2,4-dione, reference compound], the inhibition in vivo at 50 mg/kg was -0.5%.
Next, `COc1c(C)c(C)c(OC)c(CCCOc2ccc(CC3SC(=O)NC3=O)cc2)c1C` (centres unmarked) [Example 10, 5-{4-[3-(2,4,5-trimethyl-3,6-dimethoxyphenyl)propoxy]benzyl}thiazolidine-2,4-dione]: 46%; `COc1c(C)c(CCOc2ccc(CC3SC(=O)NC3=O)cc2)c(OC)c(OC)c1OC` (centres unmarked) [Example 16]: 20.2%; `COc1c(C)c(COc2ccc(CC3SC(=O)NC3=O)cc2)c(OC)c2ccccc12` (centres unmarked) [Example 33]: 28.4%.
For the compound `CC(=O)Oc1c(C)c(C)c(OC(C)=O)c(CCCOc2ccc(CC3SC(=O)NC3=O)cc2)c1C` (centres unmarked) [Example 23], the inhibition in vivo at 50 mg/kg was determined as 24.4%.
For the compound `Cc1c(C)c(O)c(CCC(C)(O)COc2ccc(CC3SC(=O)NC3=O)cc2)c(C)c1O` (centres unmarked) [Control 2, 5-{4-[4-(2,5-Dihydroxy-3,4,6-trimethylphenyl)-2-hydroxy-2-methylbutoxy]benzyl}thiazolidine-2,4-dione, reference compound], the inhibition in vivo at 50 mg/kg came out at 10.4%.
As for `COc1c(C)c(C)c(OC)c(CCCCOc2ccc(CC3SC(=O)NC3=O)cc2)c1C` (centres unmarked) [Example 12], the inhibition in vivo at 50 mg/kg was 24%.
Turning to `COc1c(C)c(C)c(OC)c(COc2ccc(CC3SC(=O)NC3=O)cc2)c1C` (centres unmarked) [Example 9], the inhibition in vivo at 50 mg/kg was 28.8%.
For the compound `CC(=O)Oc1c(C)c(C)c(OC(C)=O)c(CCOc2ccc(CC3SC(=O)NC3=O)cc2)c1C` (centres unmarked) [Example 21], the inhibition in vivo at 50 mg/kg is 33.4%.
For the compound `COc1cc(CCOc2ccc(CC3SC(=O)NC3=O)cc2)c(OC)c2ccccc12` (centres unmarked) [Example 34], the inhibition in vivo at 50 mg/kg was 40%.
Next, `COc1c(C)c(CCCOc2ccc(CC3SC(=O)NC3=O)cc2)c(OC)c(OC)c1OC` (centres unmarked) [Example 18]: 22%.
